Assay results taken from PubChem BioAssay (NCI).
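48-hour exposure; five concentrations; linearly interpolated endpoints. The concentration for full growth arrest is given as TGI.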

Experiments:
Assay in all cases: inhibition of tumour cell growth, NCI panel, 48 h
OVCAR-3 ovarian = test system: OVCAR-3 ovarian
LOX IMVI melanoma = test system: LOX IMVI melanoma
MCF7 breast = test system: MCF7 breast
MDA-N = test system: MDA-N
UO-31 renal = test system: UO-31 renal
SK-MEL-5 melanoma = test system: SK-MEL-5 melanoma
K-562 leukemia = test system: K-562 leukemia
SF-268 CNS = test system: SF-268 CNS
HS 578T breast = test system: HS 578T breast
SNB-75 CNS = test system: SNB-75 CNS

Compound | TGI (OVCAR-3 ovarian) [µM] | TGI (LOX IMVI melanoma) [µM] | TGI (MCF7 breast) [µM] | TGI (MDA-N) [µM] | TGI (UO-31 renal) [µM] | TGI (SK-MEL-5 melanoma) [µM] | TGI (K-562 leukemia) [µM] | TGI (SF-268 CNS) [µM] | TGI (HS 578T breast) [µM] | TGI (SNB-75 CNS) [µM]
CC(=O)NC(Cc1ccc(OP(=O)(OCc2ccc([N+](=O)[O-])o2)N(C)CCCCCl)cc1)C(=O)NC(C)c1ccc(OCC2CCCCC2)c(C(N)=O)c1 (stereo unspecified) | 5.04 | 3.77 | 5.23 | 5.22 | 45.2 | 3.08 | > 100 | 6.48 | 4.65 | –
C#CCn1c(=O)c(Cl)cn(/C(=C/C(=O)OCC)C(=O)OCC)c1=O | 11.7 | 19.9 | 22.7 | 29.9 | 10.6 | 30.6 | 7 | 51.1 | > 100 | 34.2
Clc1c(C(Cl)(Cl)Cl)nsc1N1CCCCC1 | 56.9 | 32.5 | 69.3 | > 100 | 44.3 | 29.6 | 53.2 | > 100 | > 100 | 81.8
Nn1c(Cc2ccccc2)n[nH]c1=O | > 100 | > 100 | > 100 | > 100 | > 100 | > 100 | > 100 | > 100 | > 100 | > 100
Cc1nc2ccccc2n1Cc1nnc(N)o1 | > 100 | > 100 | > 100 | > 100 | > 100 | > 100 | > 100 | > 100 | > 100 | > 100
O=C(OCc1ccccc1)N1CCN(C(=O)OCc2ccccc2)CCN(C(=O)OCc2ccccc2)CCN(C(=O)OCc2ccccc2)CCN(C(=O)OCc2ccccc2)CC1 | > 100 | > 100 | > 100 | > 100 | > 100 | 33.3 | – | – | > 100 | 96.6
CCOc1ccc2nc(NC(NC(=O)c3cccnc3)(C(F)(F)F)C(F)(F)F)sc2c1 | > 100 | – | 91.4 | 42.9 | > 100 | 49.2 | > 100 | > 100 | > 100 | 68.2
CCOC(=O)C(C(=O)OCC)=C1NC2(c3ccccc3Nc3ccc(C)cc32)C(C(=O)OC)S1 (stereo unspecified) | > 100 | > 100 | > 100 | > 100 | > 100 | 66.9 | > 100 | > 100 | 69.2 | 62.4
Oc1ccc(O)c(CNc2ccccc2)c1 | 19.3 | 28.1 | 57.7 | 16.6 | 27 | 33.9 | > 100 | > 100 | > 100 | > 100
O=C1ON=C2C3CC4CC12CC1(C3)C(=O)ON=C41 | > 100 | > 100 | > 100 | > 100 | > 100 | > 100 | > 100 | – | – | > 100
COC(=O)[C@H](Cc1ccccc1)NP(=O)(O)OCC1C=CC(n2cc(C)c(=O)[nH]c2=O)O1 (stereo partly specified) | > 100 | > 100 | > 100 | – | > 100 | > 100 | > 100 | > 100 | > 100 | > 100
CCN(CC)CCCOc1cc2c(cc1OC)C(=O)N1CCC[C@H]1C=N2 | 50 | 31.3 | > 100 | – | > 100 | 63.7 | > 100 | > 100 | > 100 | –
CC(C)OC(=O)[C@@H](O)[C@H](CO)C1=CC([Si](C)(C)c2ccccc2)=CON1 | > 100 | > 100 | > 100 | – | > 100 | > 100 | > 100 | > 100 | – | 69.2
O=C1c2ccccc2-c2nc(/C=C/c3ccccc3)cc3c2c1nc1ccccc13 | 3.95 | – | > 100 | – | > 100 | 8.8 | 32.2 | > 100 | 62.6 | 47.7
O=C1c2ccccc2C(=O)c2c(O)ccc(O)c21 | 94.1 | > 100 | – | – | > 100 | > 100 | > 100 | > 100 | – | > 100
c1ccc2c(c1)CC1COc3ccccc3C1O2 (stereo unspecified) | > 100 | > 100 | > 100 | > 100 | > 100 | 37.9 | > 100 | > 100 | – | > 100
COc1ccc(-c2cc(-c3cc(F)c(Cl)cc3Cl)on2)cc1OC | > 100 | > 100 | – | 41 | > 100 | 43.3 | > 100 | > 100 | > 100 | > 100
CC(Cc1ccccc1)NC1=NCCO1 (stereo unspecified) | – | 34.9 | > 100 | 72.3 | 50.4 | > 100 | – | – | > 100 | > 100
CC(NC(C#N)CC12CC3CC(CC(C3)C1)C2)c1ccccc1 (stereo unspecified) | 71.9 | 62.7 | > 100 | > 100 | > 100 | > 100 | > 100 | > 100 | – | –
c1ccc2nc(CCC3CCCCN3)ccc2c1 (stereo unspecified) | – | > 100 | > 100 | > 100 | > 100 | > 100 | > 100 | > 100 | > 100 | > 100
Cc1ccc(S(=O)(=O)NC(=O)NC(Cc2ccc(O)c(O)c2)C(=O)O)cc1 (stereo unspecified) | > 100 | > 100 | > 100 | > 100 | > 100 | > 100 | > 100 | 2.8 | – | –
C=CCCCCCCCCCOC1C=CC(OC(C)=O)C(COC(C)=O)O1 (stereo unspecified) | > 100 | > 100 | > 100 | > 100 | > 100 | > 100 | 17.4 | > 100 | 63 | –
NC(=O)CC(N=C1C(=O)OC(C(O)CO)C1=NC(CC(N)=O)C(=O)O)C(=O)O (stereo unspecified) | – | – | > 100 | > 100 | > 100 | > 100 | > 100 | > 100 | > 100 | > 100
